# Source: PubChem BioAssay (NCI)
#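 Cultured in 96-well plates, cells were exposed to test compound for 48 hours across five concentrations. TGI denotes the concentration required for complete inhibition of growth.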
# Assays:
# Test in all cases: DTP human tumour cell line panel, 48 h
# 786-0 renal = system: 786-0 renal
# BT-549 breast = system: BT-549 breast
# HCT-116 colon = system: HCT-116 colon
# HL-60(TB) leukemia = system: HL-60(TB) leukemia
# HS 578T breast = system: HS 578T breast
# M14 melanoma = system: M14 melanoma
# MDA-MB-231 breast = system: MDA-MB-231 breast
# MDA-N = system: MDA-N
# OVCAR-8 ovarian = system: OVCAR-8 ovarian
# SK-MEL-2 melanoma = system: SK-MEL-2 melanoma
# SNB-19 CNS = system: SNB-19 CNS
SMILES,TGI (786-0 renal),TGI (BT-549 breast),TGI (HCT-116 colon),TGI (HL-60(TB) leukemia),TGI (HS 578T breast),TGI (M14 melanoma),TGI (MDA-MB-231 breast),TGI (MDA-N),TGI (OVCAR-8 ovarian),TGI (SK-MEL-2 melanoma),TGI (SNB-19 CNS)
O=C(CCN1CCCC1)Nc1ccc2sc3ccccc3c(=O)c2n1,17.5 µM,19.2 µM,16.4 µM,16.3 µM,18.2 µM,17.6 µM,18.6 µM,20.1 µM,17.3 µM,18 µM,19.6 µM
CC[N+](C)(CC)CCC(O)(c1ccccc1)c1ccccc1,> 100 µM,> 100 µM,> 100 µM,> 100 µM,> 100 µM,> 100 µM,> 100 µM,> 100 µM,> 100 µM,> 100 µM,> 100 µM
O=[N+]([O-])c1ccc(S[C@@H]2[C@H]3c4c(-c5ccccc5)[nH]c(-c5ccccc5)c4[C@@H]2C[C@H]3Cl)cc1,23.8 µM,9.78 µM,7.86 µM,24.3 µM,72.2 µM,> 100 µM,> 100 µM,18.6 µM,> 100 µM,70.9 µM,> 100 µM
CN(C)/N=C/c1cn(C)c(=O)n(C)c1=O,> 100 µM,> 100 µM,> 100 µM,> 100 µM,> 100 µM,> 100 µM,> 100 µM,> 100 µM,> 100 µM,> 100 µM,> 100 µM
COc1ccc2c(c1)C(N)=C(c1ccccc1)C2=O,> 100 µM,> 100 µM,> 100 µM,> 100 µM,56.3 µM,> 100 µM,> 100 µM,> 100 µM,> 100 µM,> 100 µM,> 100 µM
CCOC(=O)C1(C(=O)OCC)[C@H](c2ccccc2)C2=NO[C@@H]3CCC[C@H]1[C@H]23,> 100 µM,> 100 µM,> 100 µM,> 100 µM,> 100 µM,> 100 µM,> 100 µM,> 100 µM,> 100 µM,> 100 µM,> 100 µM
Cc1ccc(C(=O)O)c(CC2Cc3c(C)cccc3C2=O)c1 (centres undefined),> 100 µM,> 100 µM,> 100 µM,> 100 µM,> 100 µM,> 100 µM,> 100 µM,> 100 µM,> 100 µM,> 100 µM,> 100 µM
C(=C\c1cccc(/C=C/c2ccccn2)n1)/c1ccccn1,> 100 µM,40.9 µM,> 100 µM,> 100 µM,44.3 µM,> 100 µM,> 100 µM,> 100 µM,> 100 µM,> 100 µM,> 100 µM
COc1nc2c(c(=O)n1C)N[C@H]1[C@H](OC(C)=O)[C@@H](OC(C)=O)CO[C@H]1N2,> 100 µM,> 100 µM,> 100 µM,> 100 µM,> 100 µM,> 100 µM,> 100 µM,> 100 µM,> 100 µM,> 100 µM,> 100 µM
N#CC(C#N)=C1C(C#N)=C(N)NC12OCCO2,> 100 µM,> 100 µM,> 100 µM,> 100 µM,> 100 µM,> 100 µM,> 100 µM,> 100 µM,> 100 µM,> 100 µM,> 100 µM
N=c1oc2ccc3ccccc3c2cc1C(N)=O,> 100 µM,> 100 µM,> 100 µM,> 100 µM,54.6 µM,> 100 µM,> 100 µM,> 100 µM,> 100 µM,49.4 µM,> 100 µM
Cc1cccc2c1[nH]c1[nH]c(=O)[nH]c(=O)c12,> 100 µM,> 100 µM,> 100 µM,> 100 µM,> 100 µM,> 100 µM,> 100 µM,> 100 µM,> 100 µM,> 100 µM,> 100 µM
O=C1NC(=O)/C(=C/c2ccc(S(=O)(=O)N/N=C/c3ccc(Cl)cc3)cc2)N1,> 100 µM,> 100 µM,> 100 µM,> 100 µM,> 100 µM,> 100 µM,> 100 µM,> 100 µM,> 100 µM,> 100 µM,> 100 µM
O=C1CCC2(CCO1)OCCO2,> 100 µM,> 100 µM,> 100 µM,> 100 µM,> 100 µM,> 100 µM,> 100 µM,> 100 µM,> 100 µM,> 100 µM,> 100 µM
Cc1cc(C)c(P2C(=C(O[Si](C(C)C)(C(C)C)C(C)C)C(C)(C)C)C2(c2ccccc2)c2ccccc2)c(C)c1 (centres undefined),> 100 µM,> 100 µM,> 100 µM,> 100 µM,> 100 µM,> 100 µM,> 100 µM,> 100 µM,> 100 µM,> 100 µM,> 100 µM
N=C1N(S(=O)(=O)c2ccccc2)[C@@H](Cc2ccccc2)[C@H](c2ccccc2)C1(c1ccccc1)c1ccccc1,> 100 µM,> 100 µM,> 100 µM,> 100 µM,> 100 µM,> 100 µM,> 100 µM,> 100 µM,> 100 µM,> 100 µM,> 100 µM
CC(=O)O[C@@H]1C[C@@]23C[C@@]24CC[C@H](OC2OCC(O)C(O)C2O)C(C)(C)[C@@H]4CC=C3[C@]2(C)C[C@@H]3OC4(C[C@@H](C)[C@@H]3[C@@]12C)OC(O)[C@@]1(C)O[C@@H]41 (some centres undefined),63.1 µM,97.3 µM,49.7 µM,36.4 µM,> 100 µM,> 100 µM,44 µM,> 100 µM,> 100 µM,40.7 µM,> 100 µM
COc1cc(/C=C/C(=O)c2c(=O)o[nH][n+]2-c2ccccc2)ccc1[O-],4.94 µM,7.9 µM,5.67 µM,3.65 µM,9.6 µM,9.64 µM,12.4 µM,6.25 µM,8.09 µM,6.06 µM,17.4 µM
Clc1ccc(Cc2nc3ccccc3nc2-c2cccc(Br)c2)cc1,3.48 µM,9.93 µM,3.5 µM,6.49 µM,3.57 µM,5.17 µM,14.1 µM,4.19 µM,8.09 µM,17.8 µM,3.14 µM
CCOP(=O)(OCC)C(Nc1cccc(F)c1)c1ccccc1 (centres undefined),> 100 µM,> 100 µM,> 100 µM,55.3 µM,> 100 µM,> 100 µM,> 100 µM,> 100 µM,> 100 µM,> 100 µM,> 100 µM
O=CC(O)C(O)C(O)C(O)C(=O)NCCCCCCCCCCCCNC(=O)C(O)C(O)C(O)C(O)C=O (centres undefined),> 100 µM,> 100 µM,> 100 µM,> 100 µM,> 100 µM,> 100 µM,> 100 µM,> 100 µM,> 100 µM,> 100 µM,> 100 µM
CC(C)=CCC[C@@H](C)C1=C(Nc2ccccc2Cl)C(O)=C(C)C(=O)C1=O,> 39.1 µM,36.3 µM,> 43.7 µM,2.94 µM,13.1 µM,33.5 µM,> 100 µM,27 µM,9.09 µM,19.2 µM,26.8 µM
CCOC(=O)C(NC(=O)N(C1=NCC(C)S1)C1CCCCC1)(OC)C(F)(F)F (centres undefined),28.9 µM,> 100 µM,> 100 µM,59.5 µM,> 100 µM,> 100 µM,> 100 µM,> 100 µM,> 100 µM,> 100 µM,> 100 µM
CC[N+]1(C)CCC(O)(/C=C/c2ccc(OC)cc2)C(C(=O)/C=C/c2ccc(OC)cc2)C1 (centres undefined),> 25.8 µM,49.7 µM,> 48.3 µM,5.03 µM,> 85 µM,30.8 µM,> 53.9 µM,> 50.1 µM,> 56.2 µM,39.7 µM,35.6 µM
